Reference: US7232837B2, “Stereoisomers with high affinity for adrenergic receptors” (McNeil-PPC, Inc., priority 1999, dated 2007)

Key:
Dog = assay: Dosage which raised mean arterial pressure 10%, dog; type: in vivo
Rat = assay: Dosage which raised mean arterial pressure 10%, rat; type: in vivo
Sprague Dawley rats [1] = assay: Nasal airway pressure in histamine-challenged rats
Sprague Dawley rats [2] = assay: Nasal airway pressure in non-histamine-challenged rats; conditions: for Mean Decrease in Nasal Airway Pressure: rats, i.v., ± SEM
α2 adrenergic receptors = assay: Alpha-2 binding, 125iodoclonidine, canine brain (frontal cortex) membranes; parameters: species or system canine (mongrel dogs); conditions: canine brain membranes; for IC50: inhibition of specific p-iodoclonidine binding; for Ki: p-iodoclonidine
Description: BRAIN ALPHA-2 RECEPTORS: Membranes of mongrel dogs were harvested from the canine frontal cortex and prepared as described for lung except that the final membrane protein concentration was adjusted to 0.5 mg/ml.
ALPHA-2 BINDING ^125IODOCLONIDINE. […] Nonspecific binding was determined in separate incubations in the presence of 10 μM phentolamine. The final concentration of p-iodoclonidine was 44–45 pM in competition studies and between 50 pM and 10 nM in saturation experiments. Bound and free p-^125iodoclonidine were separated and the bound quantified as described above for the ICYP assays. […] BETA-2 BINDING, ^125IODOCYANOPINDOLOL (^125ICYP). […] Nonspecific binding was determined in separate incubations in the presence of 2 μM d,l-propranolol. Each experimental point was determined in triplicate. […] Incubations were terminated as described above for the α1 assays. Filters were placed into polyethylene tubes and the bound ligand was determined by gamma spectrometry (Sano et al., 1993).
All data were analyzed with the aid of microcomputer nonlinear curve fitting programs (PRISM 2.0, Graphpad Software, San Diego Calif.).
The receptors resident in each of the three membrane preparations were evaluated by standard saturation analysis following the addition of increasing concentrations of the appropriate radioligand. […] The radio ligand added for subsequent α2-displacement assays was adjusted to evaluate only the high affinity receptor. Contributions from p-iodoclonidine binding to imidazoline receptors in the α2-displacement assay were evaluated with epinephrine.
The variable, I, is the concentration of tracer added and the variable, Kd, is the equilibrium dissociation constant empirically determined for this receptor population.

Compound | Dosage of Enantiomer which raised mean arterial pressure 10%, Dog (Dog) [µg/kg] | Dosage of Enantiomer which raised mean arterial pressure 10%, Rat (Rat) [µg] | nasal airway pressure, Post Drug (Sprague Dawley rats [1]; 100% dose i.v. after histamine challenge) [mm water] | nasal airway pressure, % Change (Sprague Dawley rats [1]; 100% dose i.v. after histamine challenge, post drug vs post histamine) [%] | nasal airway pressure, Post Histamine (Sprague Dawley rats [1]; after intranasal histamine 50 mM, before drug) [mm water] | nasal airway pressure, Control (Sprague Dawley rats [1]; before histamine and drug) [mm water] | Mean Decrease in Nasal Airway Pressure (Sprague Dawley rats [2]; 5% of the dose that increased mean arterial pressure 10%) | Mean Decrease in Nasal Airway Pressure (Sprague Dawley rats [2]; 10% of the dose that increased mean arterial pressure 10%) | Mean Decrease in Nasal Airway Pressure (Sprague Dawley rats [2]; 25% of the dose that increased mean arterial pressure 10%) | Mean Decrease in Nasal Airway Pressure (Sprague Dawley rats [2]; 50% of the dose that increased mean arterial pressure 10%) | nasal airway pressure, Post Drug (Sprague Dawley rats [2]; 100% dose i.v. (jugular vein), non-histamine-challenged rats) [mm H2O] | nasal airway pressure, % Change (Sprague Dawley rats [2]; 100% dose i.v., non-histamine-challenged rats, post drug vs control) [%] | nasal airway pressure, Control (Sprague Dawley rats [2]; before drug, non-histamine-challenged rats) [mm H2O] | IC50 (α2 adrenergic receptors) [µM] | Ki (α2 adrenergic receptors) [µM]
CNC[C@@H](O)c1cccc(O)c1 [(+)-Phenylephrine, (+)-phenylephrine] | 80 | 24 | 5.5 ± 0.5 | −35.2 ± 2.5 | 8.7 ± 1.1 | 6.5 ± 0.4 | −4.00 ± 1.2 | −2.5 ± 1.0 | −4.6 ± 1.4 | −10.2 ± 3.9 | 8 ± 0.3 | −12.2 ± 3.1 | 9 ± 0.4 |  | 
(+)-norpseudoephedrine |  |  |  |  |  |  |  |  |  |  |  |  |  | 5 | 4
(−)-norpseudoephedrine |  |  |  |  |  |  |  |  |  |  |  |  |  | 10 | 8
